Reference: patent publication US20260355115A1, “SUSTAINED-RELEASE MICROSPHERES INCLUDING GLP-1 RECEPTOR AGONIST OR PHARMACEUTICALLY ACCEPTABLE SALT THEREOF AND USE THEREOF” (PEPTRON, INC., priority 2022, published 2026)

Columns and labels:
[1] = Evaluation of anti-obesity efficacy in diet-induced obesity (DIO) mouse model; format: in vivo, C57BL/6J-DIO mice; details: 0.1 mpk s.c. QD, 8 weeks, 60% HFD
Experimental: The sustained-release formulation of Example 3 according to the present invention was administered to a diet-induced obesity (DIO) mouse model to confirm the anti-obesity efficacy.
Sixteen-week-old male C57BL/6J and C57BL/6J-DIO mice (The Jackson Laboratory (JAX), Saeron Bio) were used in the study. After introduction, the mice were sufficiently fed with a regular chow diet (5 kcal % of fat, PicoLab, #5053, USA) or a high fat diet (60 kcal % of fat, Research diet, D12492, USA) together with water, maintained at a temperature of 22±2 °C and a humidity of 50±10%, and acclimated in individual cages under an automatically controlled 12-hour light/dark cycle (dark: 7 pm to 7 am). After one week of acclimation, all prepared subjects were administered and acclimated, and clinical signs (activity, stool abnormalities, bleeding, wounds, deformities, skin, hair, eye abnormalities, etc.) were observed twice a day (when administered in the morning and when monitored in the afternoon).
To evaluate body weight and food intake, the drug was administered for 8 weeks under conditions described in Table 6, and body weight (FX-2000i, A&D company, 0.01 to 2200 g) and food intake (CSG201F, OHAUS, 0.1 g to 200 g) were measured daily starting from the first day of administration. All result values were expressed as the mean±standard error, and the statistical significance of the group was calculated through an independent t-test between test substance administration groups.
The body weight measurement results were shown in FIG. 5A, and the body weight gain rate (ΔBody weight from baseline (vs Con(-)), %) was shown in FIG. 5B. This was shown as the body weight change (%) calculated by comparing the drug-administered groups to the negative control group.

[2] = Pharmacokinetic profile of sustained-release formulation in minipigs (s.c., LC-MS/MS of blood); format: in vivo; details: 0.08 mpk
Experimental: Next, in order to evaluate the pharmacokinetics in medium-sized animals, the sustained-release formulation of Example 3 according to the present invention was administered to minipigs, and the drug release patterns within the microspheres in the body were evaluated.
After subcutaneous injection (S.C) of drug at a dose of 0.08 mpk (mg/kg) into 20 to 30 kg of male SPF minipigs, the blood concentration of semaglutide was observed over time. A 2.5 ml of blood was collected from the jugular vein at 1 hour, 6 hours, 12 hours, 24 hours, 2 days, 3 days, 5 days, 7 days, 9 days, 11 days, 14 days, 16 days, 18 days, 21 days, 24 days, 28 days, 31 days, 35 days, 42 days, 49 days, 56 days, 63 days, and 70 days (total 23 points) after injection, respectively, stored at −80 °C, and then subjected to LC-MS/MS analysis.

CC[C@H](C)[C@H](NC(=O)[C@H](Cc1ccccc1)NC(=O)[C@H](CCC(=O)O)NC(=O)[C@H](CCCCNC(=O)COCCOCCNC(=O)COCCOCCNC(=O)CC[C@H](NC(=O)CCCCCCCCCCCCCCCCC(=O)O)C(=O)O)NC(=O)[C@H](C)NC(=O)[C@H](C)NC(=O)[C@H](CCC(N)=O)NC(=O)CNC(=O)[C@H](CCC(=O)O)NC(=O)[C@H](CC(C)C)NC(=O)[C@H](Cc1ccc(O)cc1)NC(=O)[C@H](CO)NC(=O)[C@H](CO)NC(=O)[C@@H](NC(=O)[C@H](CC(=O)O)NC(=O)[C@H](CO)NC(=O)[C@@H](NC(=O)[C@H](Cc1ccccc1)NC(=O)[C@@H](NC(=O)CNC(=O)[C@H](CCC(=O)O)NC(=O)C(C)(C)NC(=O)[C@@H](N)Cc1cnc[nH]1)[C@@H](C)O)[C@@H](C)O)C(C)C)C(=O)N[C@@H](C)C(=O)N[C@@H](Cc1c[nH]c2ccccc12)C(=O)N[C@@H](CC(C)C)C(=O)N[C@H](C(=O)N[C@@H](CCCNC(=N)N)C(=O)NCC(=O)N[C@@H](CCCNC(=N)N)C(=O)NCC(=O)O)C(C)C [semaglutide, N^6,26-{18-[N-(17carboxyheptadecanoyl)-L-γ-glutamyl]-10-oxo-3,6,12,15-tetraoxa-9,18-diazaoctanoyl}-[8 (2-amino-2-propanoic acid), 34-L-arginine] human glucagon-like peptide 1(7-37)]
Body weight loss rate (ΔBody weight from baseline vs Con(-)) [1]: statistically significant (p<0.05) body weight loss rate
Body weight vs negative control group [1]: statistically significant decrease (p<0.05) in body weight
Food intake vs negative control group [1]: statistically significant decrease (p<0.05) in food intake
Initial burst release or delayed release ([2]; formulation containing the microspheres of Example 3): no initial burst release or delayed release in minipigs
Release duration of semaglutide ([2]; formulation containing the microspheres of Example 3, compared with S.D. rats): longer in minipigs
